Measurements published in patent US20130243847A1, “ACTIVATED CREATININE AND PRECURSORS THEREOF AS ANTIBACTERIAL AGENTS, COMPOSITIONS AND PRODUCTS CONTAINING SUCH AGENTS AND USE THEREOF” (BOARD OF REGENTS OF THE UNIVERSITY OF NEBRASKA, priority 2010, published 2013).
Entries after “also recorded” stand apart in the source; their conditions may differ.

How the values were obtained:
Assay type in all cases: cell-based
Rhodotorula sp. [1] = assay: Selective growth on LBD, mixture of S. aureus and Rhodotorula sp. (Example 12, FIG. 11B); settings: 200-400 mM CEE in LBD, 37° C., 36 hours
Description: (§1) Colonies of S. aureus and Rhodotorula sp. grown on LB agar supplemented with 1% dextrose (LBD) were suspended in PBS to 0.30 A580 nm. An equal volume of the two organisms was combined and the mixture streaked onto wells containing only LBD (None) or LBD supplemented with a precursor of antibacterially-activated CRN, CEE, and incubated at 37° C. for 36 hours.

S. aureus [2] = assay: as above; settings: 37° C., 36 hours
Description: as §1

S. aureus [3] = assay: Disc diffusion assay of creatine esters (Example 6); settings: approx. 50 μL anhydrous polyethylene glycol carrier with 28% by weight agent
Description: Four (4) different creatine esters were prepared according to the method of U.S. Pat. No. 6,897,334 to Vennerstrom. The esters thus prepared were activated in the manner described herein to impart antibacterial activity thereto. Four (4) test formulations were prepared, each including approximately 50 μL of an anhydrous polyethylene glycol carrier containing 28% by weight of a different creatine ester. Each formulation was added to a 6 mm disc and inverted onto a brain heart infusion agar plate that was previously spread with S. aureus at 10^5 organisms per mL. Plates were incubated at 37° C. overnight and the clear zones showing inhibition of bacterial growth were measured.

S. aureus [4] = assay: Disc diffusion assay, different carrier media (Example 2); settings: 28% by weight agent, approx. 50 μL
Description: For purposes of the experiments described below, test compositions were prepared by admixing antibacterially-activated creatinine (CRN) or a precursor of antibacterially-activated CRN, i.e., creatine ethyl ester (CEE), as required for the experiment at hand, with a weighed amount of a suitable carrier medium to give a final concentration of 28% by weight of the antibacterial agent, based on the total weight of the composition.
Antibacterial compositions were prepared following this procedure using a number of different aqueous and non-aqueous (anhydrous) carrier media, and evaluated for antibacterial activity in a standard disc diffusion assay. Thus, approximately 50 μL of each selected carrier containing 28% by weight of either a precursor of antibacterially-activated CRN, CEE, or antibacterially-activated CRN was added to a 6 mm disc and inverted onto a brain heart infusion agar plate that was previously spread with S. aureus at 10^5 organisms per mL. Plates were incubated at 37° C. overnight and the clear zones showing inhibition of bacterial growth were measured.

Saccharomyces sp. [5] = assay: Selective growth on LBD agar, mixture of Micrococcus sp. and Saccharomyces sp. (Example 12, FIG. 11A)
Description: Colonies of Micrococcus sp. and Saccharomyces sp. grown on LB agar supplemented with 1% dextrose (LBD) were suspended in PBS to 0.30 A580 nm. An equal volume of the two organisms was combined and the mixture streaked onto LBD agar alone or LBD containing CEE and incubated at 37 C for 24 hours.

M. luteus = assay: Growth in broth with CEE at different concentrations (Example 3, FIG. 2B); settings: broth culture, absorbance over time
Description: (§2) The CEE precursor of antibacterially-activated CRN was diluted at different concentrations into Lederberg's broth (LB), which was then inoculated to 10^4/mL with S. aureus. The cultures were incubated in capped plastic tubes at 37° C. and aerated by tumbling using a tube rotating device.
A similar experiment was conducted with the same precursor of antibacterially-activated CRN and tested on M. luteus.

S. aureus [6] = assay: Growth in Lederberg's broth with CEE at different concentrations (Example 3, FIG. 2A); settings: inoculum 10^4/mL, 37° C., absorbance over time
Description: as §2

Rhodotorula sp. [7] = assay: Selective growth on BHI agar, mixture of three organisms (Example 12, FIG. 11C)
Description: (§3) Colonies of Micrococcus sp., Rhodotorula sp. and Saccharomyces sp. grown on brain heart infusion agar (BHI) were suspended in PBS to 0.30 OD, 580 nm. An equal volume of the three (3) organisms were combined and the mixture streaked onto plates containing BHI agar alone or BHI agar supplemented with a precursor of antibacterially-activated CRN, CEE, and incubated 48 hours at 37° C.

Micrococcus sp. = assay: as above
Description: as §3

Saccharomyces sp. [8] = assay: as above
Description: as §3

S. aureus UAMS-1 = assay: Bactericidal test in overnight culture (Example 5, FIG. 4); settings: 200 mM
Description: S. aureus UAMS-1 was started from a static overnight, grown for 3 hours, then 0.2 mL was added to 3 different 50 mL cultures for control, CRN and CEE. These were shaken 30 min. at 37° C., an aliquot was removed prior to the addition of a precursor of antibacterially-activated CRN, CEE, or antibacterially-activated CRN, and the starting titer was determined. Powdered CEE or crystal CRN was added directly to the 50 mL cultures to a final concentration of 200 mM. The cultures were shaken overnight and the absorbance (A) and colony forming units (cfu) were determined.

Micrococcus luteus = assay: Disc diffusion assay, odor causing microorganisms (Example 11); settings: 25 mg anhydrous formulation (28% by weight) on filter disc
Description: (§4) Twenty-five milligrams of an anhydrous formulation of either antibacterially-activated CRN or a precursor of antibacterially-activated CRN, CEE, was prepared as described in Example 2, applied to a filter disc and tested for inhibition of bacterial growth of several odor causing microorganisms in a standard disc diffusion assay using Eridex™ (Cargill Inc. Cedar Rapids, Iowa) or creatine monohydrate containing no antibacterial agent as controls. […] The zones of inhibition for CRN or lack thereof for control test samples for B. linens and M. luteus are illustrated in FIGS. 10A and 10B respectively.

Bacillus subtilis = assay: as above; settings: 25 mg anhydrous formulation (28% by weight) on filter disc
Description: as §4

[9] = test system: Staphylococcus epidermidis; assay: as above; settings: 25 mg anhydrous formulation (28% by weight) on filter disc
Description: as §4

Brevibacterium linens = assay: as above; settings: 25 mg anhydrous formulation (28% by weight) on filter disc
Description: as §4

[10] = 100 mM and 200 mM CEE in BHI agar, 48 hours, 37° C.
[11] = 300 and 400 mM CEE in BHI agar (data not shown)

Structure (SMILES): CCOC(=O)CN(C)C(=N)N [CEE, creatine ethyl ester]
- growth of Rhodotorula (Rhodotorula sp. [1]): did not retard growth
- growth of Staphylococcus (S. aureus [2]; 100 mM CEE in LBD): retarded
- growth of Staphylococcus (S. aureus [2]; 200 mM CEE and greater in LBD): completely inhibited
- Zone of Inhibition (S. aureus [3]): 20 mm
- Zone of Inhibition (S. aureus [4]; carrier hydrogel): 20 mm
- Zone of Inhibition (S. aureus [4]; carrier mineral oil): 21 mm
- Zone of Inhibition (S. aureus [4]; carrier pharmaceutical grade Lipoil (lecithin and isopropyl palmitate)): 12 mm
- Zone of Inhibition (S. aureus [4]; carrier pharmaceutical topical formulation (proprietary blend)): 26 mm
- Zone of Inhibition (S. aureus [4]; carrier polyethylene glycol 200): 18 mm
- Zone of Inhibition (S. aureus [4]; carrier polyethylene glycol 400): 14 mm
- Zone of Inhibition (S. aureus [4]; carrier red palm oil): 15 mm
- Zone of Inhibition (S. aureus [4]; carrier water/25% glycerol): 15 mm
- Zone of Inhibition (S. aureus [4]; carrier water/50% glycerol): 15 mm
- Zone of Inhibition (S. aureus [4]; carrier water): 9 mm
- Zone of Inhibition (S. aureus [4]; carrier white palm oil/corn oil (50% ea)): 17 mm
- Zone of Inhibition (S. aureus [4]; carrier white palm oil): 12 mm
- selectivity of media for yeast over Micrococcus sp. (Saccharomyces sp. [5]; 200 mM CEE in LBD agar, 37 C, 24 hours): selective for Saccharomyces
- growth of Saccharomyces (Saccharomyces sp. [5]; 300-400 mM CEE in LBD agar (data not shown)): supported growth of Saccharomyces
- concentration that inhibited growth of M. luteus (M. luteus): approximately 1 mM
- concentration that inhibited growth of S. aureus (S. aureus [6]): approximately 32 mM
- growth of Rhodotorula (Rhodotorula sp. [7]; [10]): enhanced
- growth of Rhodotorula (Rhodotorula sp. [7]; [11]): did not affect the growth
- growth of Micrococcus (Micrococcus sp.; 100 mM CEE in BHI agar, 48 hours, 37° C.): greatly retarded
- growth of Micrococcus (Micrococcus sp.; 200 mM CEE in BHI agar, 48 hours, 37° C.): completely inhibited
- growth of Micrococcus (Micrococcus sp.; [11]): inhibited the growth of Micrococcus
- growth of Saccharomyces (Saccharomyces sp. [8]; [10]): enhanced
- growth of Saccharomyces (Saccharomyces sp. [8]; [11]): did not affect the growth
- colonies from 1 mL of treated culture plated on solid media (S. aureus UAMS-1; overnight culture, 48 hours incubation of plates, control 3×10^9 per mL): no colonies
- bactericidal action for S. aureus (S. aureus UAMS-1; starting at about 1×10^3 organisms per mL): bacteriocidal; also recorded: bactericidal
- ZONE OF INHIBITION (Micrococcus luteus): 22 mm
- ZONE OF INHIBITION (Bacillus subtilis): 20 mm
- ZONE OF INHIBITION [9]: 27 mm
- ZONE OF INHIBITION (Brevibacterium linens): 40 mm
